Key:
adjuvant arthritis (AA) [1] = experiment: Adoptive transfer of Con A-activated splenocytes from peptide-vaccinated rats, then AA induction in recipients; format: in vivo, Lewis rats; conditions: 5×10^7 Con A-activated splenocytes of peptide-vaccinated donors iv; AA induced three days later
Experimental: Spleen cells were prepared from peptide-vaccinated rats 26 days after the induction of AA. The splenocytes (10^7 cells per ml) were activated with 2.5 μg/ml of Con A for 48 hr at 37° C. in a humidified atmosphere of 5% CO2. The cells were washed with sterile PBS and injected iv into naïve rats (5×10^7 cells per rat). Three days after the transfer of the splenocytes, AA was induced.
To learn whether the protection triggered by Hu3-vaccination could be adoptively transferred by activated T-cells, splenocytes prepared from Hu3 vaccinated rats were stimulated in vitro for 2 days with the T-cell mitogen Con A, washed, and injected iv (5×10^7 cells per rat) into naïve rats. Only the recipients of cells taken from Hu3-vaccinated rats were protected against the subsequent induction of AA (FIGS. 4A and 4B). […] Thus, inhibition of AA by vaccination with Hu3 could be adoptively transferred by activated T-cells.

[2] = test system: IFNγ, IL-10 and TGFβ1 secretion by LNC; experiment: Cytokine assays (ELISA of culture supernatants after 72 hrs antigen stimulation); format: cell-based, Lewis rats
Description: Supernatants were collected after 72 hrs of stimulation with each of the antigens tested. Rat IL-10 and IFNγ were quantitated in culture supernatants by enzyme-linked immunosorbent assay (ELISA) using Pharmingen's OPTEIA kit (Pharmingen, San Diego, USA). Rat TGFβ1 was quantified using the TGFβ1 Emax® ImmunoAssay System (Promega, Madison, USA) according to the manufacturer's instructions. Cytokine levels in supernatants are expressed as pg/ml based on calibration curves constructed using recombinant cytokines as standards. The lower limits of detection for the experiments described in this paper were 15 pg/ml for TGFβ1, IL-10 and IFNγ.

lymph node cells (LNC) = experiment: T-cell proliferation ([methyl-3H]-thymidine incorporation, stimulation index) of cells from vaccinated rats; format: cell-based, Lewis rats; conditions: for T-cell response to the immunizing peptide: LNC of peptide-vaccinated rats after AA induction
Experimental: Popliteal and inguinal lymph node cells (LNC) taken 26 days after the induction of AA were cultured in quadruplicates in 200 μl round bottom microtiter wells (Costar Corp., Cambridge, USA) at 2×10^5 cells per well with or without antigen. The T-cell mitogen Concanavalin A (Con A) was used as a positive control for T-cell proliferation. Cultures were incubated for 96 hrs at 37° C. in a humidified atmosphere of 5% CO2. T-cell responses were detected by the incorporation of [methyl-^3H]-thymidine (Amersham, Buckinghamshire, UK; 1 μCi/well), which was added to the wells for the last 18 hours. The stimulation index (SI) was computed as the ratio of the mean c.p.m. of antigen- or mitogen-containing wells to control wells cultured with medium alone.

adjuvant arthritis (AA) [3] = experiment: Adjuvant arthritis (AA) induction and assessment after DNA or peptide vaccination; format: in vivo, Lewis rats
Experimental: Plasmid DNA was prepared in large scale and injected after pretreatment with cardiotoxin (Sigma, Rehovot, Israel). Briefly, rats were vaccinated in the quadriceps three times (on days −40, −26 −12 relative to AA induction) with 150 μg of pcDNA3, pI, pII, pIII, pIV or pV. Endotoxin levels were checked by Limulus Amoebocyte Lysate and found always to be under acceptable levels for in vivo use (less than 0.02 EU/μg DNA). AA was induced 12 days after the last injection of DNA. The empty vector pcDNA3 was used as a DNA vaccination control.
AA was induced using 1 mg per rat of heat-killed Mt strain H37Ra (Difco). The day of AA induction was designated as day 0, and disease severity was assessed by direct observation of all 4 limbs in each animal. A relative score between 0 and 4 was assigned to each limb, based on the degree of joint inflammation, redness and deformity; thus the maximum possible score for an individual animal was 16. Arthritis was also quantified by measuring hind limb diameter with a caliper. Measurements were taken on the day of AA induction and 26 days later, and they are presented as the mean±SEM of the difference between the two values. The person who scored the disease was blinded to the identity of the groups. […]

[4] = LNC day 26 after AA induction, 72 hr
[5] = LNC of peptide-vaccinated rats, day 26 after AA induction

## KFGADARALMLQGVDLLADA (listed as Homo sapiens) [Hu3]
Adjuvant arthritis (AA) [1]
  protection of recipients against subsequent induction of AA: protected
[2]; [4]
  IFNγ secretion upon stimulation with mycobacterial antigens (PPD, HSP65, Mt176-190): reduction
  IL-10 secretion upon stimulation with mycobacterial antigens (PPD, HSP65, Mt176-190): increase
  TGFβ1 secretion upon stimulation with mycobacterial antigens (PPD, HSP65, Mt176-190): increase
[2]; LNC day 26 after AA induction, relative to respective controls (FIG. 12B)
  secretion of IFNγ, stimulated with Hu3: increased
[2]; [5]
  cytokine response to whole HSP60: predominantly TFGβ1
  cytokines secreted in response to Hu3: secreted IFNγ, IL-10 and TGFβ1
Lymph node cells (LNC); LNC day 26 after AA induction
  T-cell proliferative responses to both self- and mycobacterial antigens: up-regulation
  proliferative response to HSP60: induction of a specific response
  proliferative response to control peptide Hu12: no responses
Lymph node cells (LNC); LNC day 26 after AA induction, stimulated in vitro with Hu3
  proliferative response to Hu3: recognized
Lymph node cells (LNC); LNC day 26 after AA induction, relative to controls
  T-cell proliferative responses to mycobacterial antigens (PPD, HSP65, Mt176-190): up-regulated
Lymph node cells (LNC)
  T-cell response to the immunizing peptide: significant and specific T-cell responses
Adjuvant arthritis (AA) [3]; peptide vaccination 100 μg in IFA day −7, day 26 after AA induction, vs 32.2±3.5 in PBS/IFA, p=0.02
  ankle swelling: 14.2±4.7
Adjuvant arthritis (AA) [3]; single i.p. dose of 100 μg peptide in IFA on day −7, compared to non-immunized rats or PBS, Hu12 or Mt3
  AA disease severity after peptide vaccination: significantly decreased disease

## AYDEEARRGLERGLNALADA [Mt3, mycobacterial HSP65 peptide, counterpart of Hu3, reference compound]
Adjuvant arthritis (AA) [1]
  protection of recipients against subsequent induction of AA: No protection
Lymph node cells (LNC)
  T-cell response to the immunizing peptide: significant and specific T-cell responses

## EEIAQVATISANGDKEIGNI [Hu12, human HSP60 peptide 166-185, control peptide, reference compound]
Lymph node cells (LNC)
  T-cell response to the immunizing peptide: significant and specific T-cell responses
Lymph node cells (LNC); listed as HU12
  T-cell response to the immunizing peptide: proliferated

Reference: patent publication US8361987B2, “DNA vaccines encoding heat shock proteins” (priority 2002, dated 2013)
